In patent US10561143B2, “Fungicidal composition having synergistic effect” (JIANGSU HUIFENG AGROCHEMICAL CO., LTD., priority 2013, dated 2020):
Converted amounts (≈) assume the structure as drawn. Like-named read-outs stand apart in the source and are kept apart here.

Key:
[1] = tested on: downy mildew pathogens of grape; assay: Toxicity test on downy mildew pathogens of grape (disease index and control effect on whole grape plants, EC50 and co-toxicity coefficient)
[2] = tested on: late blight pathogens of potato; assay: whole plant or invertebrate; assay type: in vivo
[3] = Table 9, series with picoxystrobin
[4] = Table 6, series with fluopicolide

CO/C=C(/C(=O)OC)c1ccccc1COc1cccc(C(F)(F)F)n1 [Picoxystrobin]
EC50 [1, 3]: 15.31 µg/mL (≈ 41.7 µM)

O=C(Nc1ccccc1-c1ccc(Cl)cc1)c1cccnc1Cl [Boscalid]
EC50 [1]: 11.6 µg/mL (≈ 33.8 µM)
EC50 ([2]; Phytophthora infestans): 6.31 µg/mL (≈ 18.4 µM)

O=C(NCc1ncc(C(F)(F)F)cc1Cl)c1c(Cl)cccc1Cl [Fluopicolide]
EC50 [1, 4]: 15.32 µg/mL (≈ 39.9 µM)

Cl.O=c1[nH]sc2ccccc12 [Benziothiazolinone hydrochloride]
EC50 ([1]; Table 10, series with fluazinam): 12.87 µg/mL

C[C@@]1(c2ccc(Oc3ccccc3)cc2)OC(=O)N(Nc2ccccc2)C1=O (racemic) [Famoxadone]
EC50 [1]: 13.8 µg/mL (≈ 36.9 µM)

OC(Cc1ccccc1Cl)(Cn1nc[nH]c1=S)C1(Cl)CC1 (stereo not drawn) [Prothioconazole]
EC50 [1]: 13.3 µg/mL (≈ 38.5 µM)

CCC(C)(NC(=O)c1cc(Cl)c(C)c(Cl)c1)C(=O)CCl (stereo not drawn) [Zoxamide]
EC50 [1]: 11.5 µg/mL (≈ 34.1 µM)
EC50 ([2]; Phytophthora infestans): 6.21 µg/mL (≈ 18.4 µM)

COC(=O)N(OC)c1ccccc1COc1ccn(-c2ccc(Cl)cc2)n1 [pyraclostrobin]
EC50 [1]: 10.7 µg/mL (≈ 27.6 µM)
EC50 ([2]; Phytophthora infestans): 5.28 µg/mL (≈ 13.6 µM)

O=[N+]([O-])c1cc(C(F)(F)F)c(Cl)c([N+](=O)[O-])c1Nc1ncc(C(F)(F)F)cc1Cl [Fluazinam]
EC50 [1]: 11.2 µg/mL (≈ 24.2 µM)

CC(C)OC(=O)N[C@H](C(=O)N[C@H](C)c1nc2ccc(F)cc2s1)C(C)C [Benthiavalicarb-isopropyl]
EC50 [1]: 10.8 µg/mL (≈ 28.2 µM)
EC50 ([2]; Phytophthora infestans): 6.73 µg/mL (≈ 17.6 µM)

CSC1=N[C@@](C)(c2ccccc2)C(=O)N1Nc1ccccc1 [Fenamidone]
EC50 [1]: 12.8 µg/mL (≈ 41 µM)
EC50 ([2]; Phytophthora infestans): 6.58 µg/mL (≈ 21.1 µM)

O=c1[nH]sc2ccccc12 [Benziothiazolinone]
EC50 ([1]; Table 1, series with benthiavalicarb-isopropyl): 8.92 µg/mL (≈ 59 µM)
EC50 ([1]; Table 2, series with zoxamide): 9.41 µg/mL (≈ 62.2 µM)
EC50 ([1]; Table 3, series with prothioconazole): 10.05 µg/mL (≈ 66.5 µM)
EC50 ([1]; Table 4, series with boscalid): 9.46 µg/mL (≈ 62.6 µM)
EC50 ([1]; Table 5, series with fenamidone): 10.59 µg/mL (≈ 70 µM)
EC50 [1, 4]: 12.17 µg/mL (≈ 80.5 µM)
EC50 ([1]; Table 7, series with famoxadone): 11.36 µg/mL (≈ 75.1 µM)
EC50 ([1]; Table 8, series with pyraclostrobin): 11.85 µg/mL (≈ 78.4 µM)
EC50 [1, 3]: 14.18 µg/mL (≈ 93.8 µM)
EC50 ([2]; Table 11, series with pyraclostrobin): 6.89 µg/mL (≈ 45.6 µM)
EC50 ([2]; Table 12, series with boscalid): 5.58 µg/mL (≈ 36.9 µM)
EC50 ([2]; Table 13, series with benthiavalicarb-isopropyl): 6.22 µg/mL (≈ 41.1 µM)
EC50 ([2]; Table 14, series with zoxamide): 5.89 µg/mL (≈ 39 µM)
EC50 ([2]; Table 15, series with fenamidone): 6.12 µg/mL (≈ 40.5 µM)
